Laboratory results published in patent publication US20040152868A1, “Compositions and methods for modulating guanylyl cyclase signaling receptor (gc-c) activity and for treating meniere's disease” (priority 2001, published 2004).
Where two headings read alike, the source gives them in different places. Bridge positions count the residues as written; N and C are the ends. Square brackets hold non-standard residues; d marks the D form. Ends that are not written are not given here. Peptide text beside a SMILES is read from it. 2Nal = N[C@@H](Cc1ccc2ccccc2c1)C(=O)O

Key:
[1] = molecular target: T1, guanylyl cyclase (GC-C) receptor (Homo sapiens, UniProt P25092); details: T84 cells, reported values; cited from earlier work
T1 construct: stimulation of cGMP in T84 cell cultures may be used as an efficacy assay; endogenous in cells; host or cells: T84 (human colon carcinoma cell line)
T1 sequence (P25092 24-1073): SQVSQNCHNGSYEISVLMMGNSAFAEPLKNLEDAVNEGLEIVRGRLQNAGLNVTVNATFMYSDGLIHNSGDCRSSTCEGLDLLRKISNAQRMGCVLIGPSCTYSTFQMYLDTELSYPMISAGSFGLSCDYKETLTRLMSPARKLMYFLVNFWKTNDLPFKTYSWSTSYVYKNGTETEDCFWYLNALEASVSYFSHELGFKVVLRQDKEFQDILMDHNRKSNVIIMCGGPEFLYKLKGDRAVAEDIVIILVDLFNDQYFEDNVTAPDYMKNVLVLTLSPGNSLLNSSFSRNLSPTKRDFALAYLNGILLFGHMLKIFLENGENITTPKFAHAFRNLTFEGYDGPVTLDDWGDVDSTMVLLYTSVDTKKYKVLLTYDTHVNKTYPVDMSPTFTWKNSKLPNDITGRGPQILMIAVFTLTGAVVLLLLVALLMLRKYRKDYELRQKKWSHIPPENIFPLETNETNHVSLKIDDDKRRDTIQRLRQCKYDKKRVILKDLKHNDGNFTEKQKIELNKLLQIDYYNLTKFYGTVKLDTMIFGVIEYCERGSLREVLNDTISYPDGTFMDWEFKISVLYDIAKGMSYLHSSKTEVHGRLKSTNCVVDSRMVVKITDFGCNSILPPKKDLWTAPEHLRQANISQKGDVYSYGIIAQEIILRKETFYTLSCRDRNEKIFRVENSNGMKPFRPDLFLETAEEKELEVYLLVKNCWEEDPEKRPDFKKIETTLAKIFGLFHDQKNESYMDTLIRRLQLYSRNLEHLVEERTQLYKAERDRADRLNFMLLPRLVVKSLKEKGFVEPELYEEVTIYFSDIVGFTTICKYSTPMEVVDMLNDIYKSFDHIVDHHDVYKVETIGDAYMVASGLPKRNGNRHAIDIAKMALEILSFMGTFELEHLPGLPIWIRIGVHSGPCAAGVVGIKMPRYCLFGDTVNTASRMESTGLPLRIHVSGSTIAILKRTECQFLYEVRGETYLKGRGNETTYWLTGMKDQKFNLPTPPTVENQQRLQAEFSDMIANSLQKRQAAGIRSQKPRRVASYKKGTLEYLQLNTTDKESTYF

[2] = rat, in vivo; cited from earlier work
[3] = molecular target: T1, guanylyl cyclase (GC-C) receptor; experiment: cGMP-efficacy on T84 cells (stimulation of cGMP formation); type: cell-based; details: cGMP formation in T84 cells; for EC50: efficacy assay of Example 1
Description: T84 cells are grown to near confluence in DMEM medium and Ham's F-12 medium (1:1) supplemented with 5% Foetal Calf Serum (FCS), […] in 175 cm^2 culture flasks (Nunc) at 37° C., 5% CO2 and 100% humidity. Cells are harvested in ice-cold PBS and centrifuged at 100×G for 10 min at 4° C. The sedimented cells are lysed in 2.5 ml dist. H2O/culture flask at 0° C. for 30 min and centrifuged at 50,000×G 4° C. for 45 min. The membrane pellet is taken up in binding buffer (50 mM HEPES, 1 mM EDTA, 10 mM MgCl2, pH 7.4) supplemented with 10% sucrose and stored at −80° C. until use.
For stimulation of cGMP formation, cells are seeded in 96-well microtiter plates (Nunc) at a density of 2500 cells/well (˜7576 cells/cm^2) and grown for 3 days before use under the same culture conditions mentioned above.
On the day of analysis growth medium is removed and the T84 cells are washed twice in Dulbeccos Phosphate Buffered Saline™ (D-PBS) containing 6 mM glucose at 37° C. Cells are then incubated at 37° C. for 40 min in the same medium supplemented with 2 mM IBMX (a phosphodiesterase inhibitor) and increasing concentrations of test compounds. The reaction is stopped by addition of ice-cold 20 μl 0.50 M HCl and incubation on ice for further 20 min. 20 μl of the acid extract is used for determination of cGMP by the FlashPlate™ technique and another 20 μl is used for determination of protein content.
Data from the cGMP experiments are treated in an analogueous way and fitted to:
f=(cGMPmax−cGMPbasic)*s/(s+EC50)+cGMPbasic
where cGMPmax is maximal obtainable cGMP and cGMPbasic is the basic level of cellular cGMP. EC50 is the concentration giving half maximum effect and s the concentration of test compound. […]

[4] = otoacoustic emission (DP-gram) in rats after 14 days i.p. infusion; type: in vivo, rat
Description: In this example, rats were given 8 nmol/kg/h of Compound 1 intraperitoneally for 14 days via Alzet osmotic pumps. Otoacoustic emissions were measured before treatment and at the end of treatment. Urine samples were collected during infusion, and the natriuretic effect of Compound 1 was measured by flame spectroscopy.
18 female Sprague-Dawley rats weighing 250 g each were divided into two groups. In total, 8 control animals received vehicle and 10 animals received COMPOUND 1. During the experiment the animals had free access to food and water.
Prior to the study COMPOUND 1 was dissolved in 50 mM phosphate buffer pH 4.0 containing 1% BSA and loaded into Alzet osmotic pumps. The pumps were then surgically inserted into the peritoneum of the rats administering 8 nmol/kg/h for 14 days. After insertion of the pumps the animals were placed in metabolic cages for a week, and samples of urine were collected every 24 hrs from Day 0 through Day 6.
The rats were all tested before the start of the study and at the end of the study. […]
The only DPOAE measured were the amplitude of cubic distortion product 2f1-f2, and always with the level of f1 (L1) 10 dB higher than the level of f2 (L2=L1-10 dB). The output of the ER-10B microphone was feed to a B&K (Nexus) amplifier and analysed on an HP 35670A spectrum. […]

[5] = standard diuresis assay / renal clearance in conscious rats with arterial pressure and heart rate recording; type: in vivo, rat
Description: Male Sprague-Dawley rats weighing 350-370 g (M&B, Denmark) were anaesthetized with a subcutaneous injection of 2 ml/kg of a 1:1 mixture of Hypnorm® (fentanyl citrate 0.315 mg/ml and fluanisone 10 mg/ml) and Dormicum® (midazolam 5 mg/ml) diluted 1:1 in distilled water. Permanent catheters were inserted into the femoral vein and artery. The i.v. line is used for i.v. infusion and the arterial line is used for continuous intra-arterial blood pressure recording and withdrawal of blood samples. A permanent supra-pubic catheter was inserted into the urinary bladder, which allowed fractionated urine collection and determination of urine flow rate. Animals were allowed about one week of recovery before they were used for experiments.
On the day of the experiment, the rat was placed in a lucid restrainer. […] To obtain a stable urine production under these conditions, the rat was slightly water loaded by i.v. infusion of a hypotonic glucose solution (150 mM glucose; 100 μl/min the first 15 min, then 25 μl/min throughout the experiment). The arterial line was connected to a pressure transducer (Baxter Truware: PX-260 Uden, Netherlands) and the pulsatile arterial blood pressure was amplified (×1.000-10.000) via a Hugo Sachs Electronic Tranducer Amplifier Module model 705/1. The analogue signal was digitalized via a 12 bit data acquisition board (Data Translation model DT321) and sampled at 1000 Hz using the Notocord HEM version 4 software for Windows NT. The systolic peak pressure triggered a software heart rate module that calculated heart rate beat-to-beat.
After a 60 minutes equilibration period, fractionated collection of urine was started (t=0). After 4 control periods (4×15 minutes), a bolus injection of Mouse-Guanylin-Asp—OH, 10 μmol/kg i.v was administered and collection of urine was collected in 15 minute periods for 3 hours (period […]). Urine volume was measured gravimetrically. The urine samples were stored at −20° C. until further analysis. Urine was analysed for sodium and potassium using a using a flame spectrophotometer (Instrumentation Laboratory, model IL 943).

guanylin (PGTCEICAYAACTGC; ends and bridges not checked; cysteine pairing not given here; UniProt Q02747 101-115, looked up)
increase in cGMP production reported [1]: 300 fold | diuretic, natriuretic and kaliuretic effect [2]: substantial diuretic, natriuretic and kaliuretic effect

Cyclo(Gly-Glu-Ile-Gly-Ala-Tyr-Ala-Ala-Gly-Thr-Gly-Gln-) (GEIGAYAAGTGQ; cyclic; printed: Gly-Glu-Ile-Gly-Ala-Tyr-Ala-Ala-Gly-Thr-Gly-Gln-) [Compound 4]
EC50 [3]: No effect

des-Pro^1, des-Asn^2Guanylin-LKK-NH2 mono oxidised(1-3) (rat/mouse) [Compound 7]
EC50 [3]: No effect

CC[C@H](C)[C@@H]1NC(=O)[C@H](CCC(=O)O)NC(=O)[C@@H](NC(=O)[C@@H](N)[C@@H](C)O)CSSC[C@@H]2NC(=O)[C@H](C)NC(=O)[C@H](C)NC(=O)[C@H](Cc3ccccc3)NC(=O)[C@H](C)NC(=O)[C@H](CSSC[C@@H](C(=O)N[C@@H](CC(C)C)C(N)=O)NC(=O)CNC(=O)[C@H]([C@@H](C)O)NC2=O)NC1=O [Compound 5, des-Pro^1, des-Asn^2[Phe^9]Guanylin-L-NH2 (rat/mouse)] (H-TCEICAFAACTGCL-NH2; disulfide 2-10, 5-13 (inferred))
EC50 ([3]; read-out: EC50): 28 µM

CC[C@H](C)[C@@H]1NC(=O)[C@H](CCC(=O)O)NC(=O)[C@@H](NC(=O)[C@@H](N)[C@@H](C)O)CSSC[C@@H]2NC(=O)[C@H](C)NC(=O)[C@H](C)NC(=O)[C@H](Cc3ccc4ccccc4c3)NC(=O)[C@H](C)NC(=O)[C@H](CSSC[C@@H](C(=O)N[C@@H](CC(C)C)C(N)=O)NC(=O)CNC(=O)[C@H]([C@@H](C)O)NC2=O)NC1=O [Compound 6, des-Pro^1, des-Asn^2[2-Nal^9]Guanylin-L-NH2 (rat/mouse)] (H-TCEICA[2Nal]AACTGCL-NH2; disulfide 2-10, 5-13)
EC50 ([3]; read-out: EC50): > 100 µM

CC[C@H](C)[C@@H]1NC(=O)[C@H](CCC(=O)O)NC(=O)[C@@H](NC(=O)[C@@H](NC(=O)[C@H](CC(N)=O)NC(=O)[C@@H]2CCCN2)[C@@H](C)O)CSSC[C@@H]2NC(=O)[C@H](C)NC(=O)[C@H](C)NC(=O)[C@H](Cc3ccc(O)cc3)NC(=O)[C@H](C)NC(=O)[C@H](CSSC[C@@H](C(N)=O)NC(=O)CNC(=O)[C@H]([C@@H](C)O)NC2=O)NC1=O [Compound 1, Mouse-Guanylin-NH2, H-PNTC*EICAYAAC*TGC-NH2 (double oxidised C to C and C* to C*)] (H-PNTCEICAYAACTGC-NH2; disulfide 4-12, 7-15)
EC50 ([3]; read-out: EC50): 6.1 µM | otoacoustic emission at 14 to 16 kHz ([4]; 8 nmol/kg/h intraperitoneally for 14 days via Alzet osmotic pumps): significant decrease | change in otoacoustic emission from before to after treatment (2-way ANOVA) ([4]; 14 days, most pronounced at the 14 kHz level): significant decrease

CC[C@H](C)[C@@H]1NC(=O)[C@H](CCC(=O)O)NC(=O)[C@@H](NC(=O)[C@@H](N)[C@@H](C)O)CSSC[C@@H]2NC(=O)[C@H](C)NC(=O)[C@H](C)NC(=O)[C@H](Cc3ccc(O)cc3)NC(=O)[C@H](C)NC(=O)[C@H](CSSC[C@@H](C(=O)N[C@@H](CC(C)C)C(=O)N[C@@H](CCCCN)C(=O)N[C@@H](CCCCN)C(N)=O)NC(=O)CNC(=O)[C@H]([C@@H](C)O)NC2=O)NC1=O [Compound 8, des-Pro^1, des-Asn^2Guanylin-LKK-NH2 fully oxidised(1-3, 2-4) (rat/mouse): H-TCEICAYAACTGCLKK-NH2 oxidised(1-3, 2-4)] (H-TCEICAYAACTGCLKK-NH2; disulfide 2-10, 5-13)
EC50 ([3]; read-out: EC50): 29 µM

SPNFIWK [Compound 3, H-Ser-Pro-Asn-Phe-Ile-Trp-Lys—NH2]
EC50 [3]: No effect

Guanylin-Asp-Lys6-NH2 (rat/mouse) [Compound 12]
agonist character at GC-C [3]: potent agonist

uroguanylin (NDDCELCVNVACTGCL; ends and bridges not checked; cysteine pairing not given here; UniProt Q16661 97-112, looked up) [synthetic uroguanylin, member of the guanylin peptide family]
increase in cGMP production reported [1]: 300 fold

Mouse-Guanylin-Asp-OH [Compound 13]
effect on heart rate ([5]; conscious rats, 10 μmol/kg i.v.): no effect | increase in mean arterial blood pressure ([5]; conscious rats, 10 μmol/kg i.v. bolus, immediate and sustained): 15-20 mmHg | effect on urinary potassium excretion rate ([5]; rats, 10 μmol/kg i.v.): rapid and transient increase | effect on urinary sodium excretion rate ([5]; rats, 10 μmol/kg i.v.): immediate and sustained increase | effect on urine flow rate ([5]; rats, 10 μmol/kg i.v.): rapid and transient increase
